Like-named read-outs stand apart in the source and are kept apart here.
Tests used:
[1] = system: HCT-116 colon carcinoma cells; type: cell-based, human
Method: (§1) T a bl e S4. The parallel artific ial membrane permeability assay (PAM PA). […]
(§2) […] The cel l s were s pl it before reac hi ng confl uence w i t h 0. 05% T ry ps i n-ED TA (G i bco™, The rmo Fisher Scientific).
(§3) C ell v ia bility a ssa y
HC T-116 cells suspended in McCoy’s 5A m edium were plated in 96 -w el l pl at es (200 μ L, 2, 500 cells/well), incubated (37 °C, 5% CO2), and 24 h later treated with various concentrations of compou nds or s ol v ent cont rol (0. 25% D M SO). […] […] Cell viability w as cal cul at ed accordi ng t o t he manufact u rer’ s i ns t ruct i ons (Promeg a).
T a bl e S5. GI50 of the L argazole, L argazole Thiol and Stapled L argazole

[2] = Parallel artificial membrane permeability assay (PAMPA); type: in vitro ADME; conditions: PAMPA Evolution, Pion GIT-0 phospholipid mixture, ~50 μM, ~15 h, UV read-out, average of quadruplicates
Method: […] […] The effect i v e permeability, Pe, of each compound was measured at the customer -s peci fi ed pHs i n t he dono r compart ment us i ng l ow-bi ndi ng , l ow UV P ri s ma bu ffer. […] The propri et ary s cav eng er mi mi cs s erum prot ei ns and bl ood ci rcul at i on, t hus creat i ng si nk condi t i ons .
I n t he defaul t p rot oc ol t he a queous s ol ut i ons of s t udi ed com poun ds are p repared by di l ut i ng and thoroughly mixing 3 μL of DMSO stock in 600μL of Prisma HT buffer. Final concentration of org ani c s ol v ent (D M SO) i n aqueous buf fer i s ≤ 0. 5 % (v /v ).
The PAM PA s andw i ch was assembl ed and al l owed to i ncubat e for ~15 ho urs . The s ol ut i ons i n t he don or compart ment w ere un- stirred within du ration of t he ex peri ment . Thus , t he t hi ck nes s of t he aqueous bounda ry l ay er ex pect ed t o be about 1000 μ m. […] Ket oprofen, Verapmi l and P ropan ol ol w ere us ed as […]
[…] […] Act ual pH t he bu ffers w as 7. 40 ± 0. 05.
S t o c k sol u ti ons preparation
The samples were diluted with an organic solvent (DMSO) to prepare stock s ol ut i ons at concent rat i on ~10 mM . […] 40 […]
as §1, §2, §3
HC T-116 cells suspended in McCoy’s 5A m edium were plated in 96 -w el l pl at es (200 μ L, 2, 500 […]

HCT-116 cells = assay: Photoactivation of stapled largazole in HCT-116 cells (cell viability); type: cell-based, human; conditions: stapled largazole 150 nM premixed with DPAP 1.5 μM, UV 365 nm, 80 W, 15 min, then 48 h, compared with non-irradiation, stapled largazole and largazole thiol groups
Method: (§4) Viability Viability Viability
(§5) DPAP Toxicity DPAP+64W-15min DPAP+80W-15min
(§6) Figu r e S7. The DPAP c onc entration and UV c ondition Sc reening. a) The cytotoxicity of DPAP without UV; b) The cytotoxicity of DPAP with UV, 365 nm, 64W, 15 min; c) The cytotoxicity of DPAP with UV, 365 nm, 80W, […]
(§7) P hotoa ctiv a tion of S ta pled La r g a zole in H C T-116 cells
(§8) Plate Cells Compounds UV CellTiter Blue Detect
(§9) Sch eme S6. The phot oact ivat ion of St apled L argazole in HC T- 116 c ells.
(§10) […] […] […] Aft er a not her 48 h of i ncubat i on, t he cel l v i abil it y w as measured according to the general method a bove.
(§11) H istone D ea cety la se ( H D AC ) Activ ity Assa y ( Fluor om etr ic) Following the measurement of the cell viability, the plates were washed with cold PBS for three t i mes. […]
(§12) (also on this page, place not known: Condition Screening Figure concentration condition Screening. Photoactivation Stapled Largazole HCT-116 Scheme photoactivation Stapled Largazole HCT-116 cells. HCT-116 cells plated in 200 μL medium per well density 2,500 cells/well grown in plates. incubated oC, 5% CO2). After h, cells various (Largazole, Largazole Thiol Stapled Largazole nM, 1.5 μM) solvent control (0.25% DMSO). group irradiated with light W) min. After another of incubation, viability was above. […]

HDAC = assay: Fluorometric HDAC activity assay with HCT-116 cell lysates; type: cell-based, human; conditions: UV-irradiated premixed group of stapled largazole and DPAP, relative to control groups and non-irradiation group, Ex/Em 355/460 nm
Method: as §4, §5, §6, §7, §8, §9, §10, §11
as §12, with “min.” for “min. After another of incubation, viability was above.”
(Thermo Sci ent i fi c™). […] Aft er be i ng i ncubat ed fo r an ot her 30 mi n at R T, t he fl uores cence i nt ens i t y w as read at Ex /Em = 35 5 n m / 4 60 nm. […]

[3] = UV-initiated thiol-ene decaging reaction (HPLC); type: physicochemical; conditions: 1-thio-β-D-glucose tetraacetate and DPAP, UV irradiation 365 nm, 15 minutes; HPLC trace
From the text: Inspired by this AFCT reaction, we hypothesized that the isobutylene structure could be used as a bridging graft to cage thiol‐containing drugs and allow further controlled activation of anticancer drugs by means of a radical‐mediated thiol‐ene mechanism (Scheme 1). […] Our research began with N‐tert‐butoxycarbonyl‐L‐cysteine methyl ester (N‐Boc‐Cys‐OMe 1), which was protected with 3‐bromo‐2‐bromomethyl‐1‐propene (Table 1 and Supporting Information). The stapled cysteine 2 was then screened under a series of reaction conditions. Firstly, different PIs were tested with the same amounts of thiol source, 1‐thio‐β‐D‐glucose tetraacetate (4AcGlcSH), and 2 under irradiation at 365 nm. […] However, the other PI, 2,2‐dimethoxy‐2‐phenylacetophenone (DPAP) successfully promoted the reaction and released 1. β‐Mercaptoethanol (BME) was also tested as the thiol compound under the same reaction conditions. […] However, when N,N‐dimethylformamide (DMF) was used as solvent, two mixed disulfides resulting from the reaction between the 1‐thioglucose and N‐Boc‐cysteine methyl ester 1′ were observed. […]
The cyclic depsipeptide largazole is a marine natural product, and its derivatives are recognized as promising potential anticancer therapeutics. […] Next, the growth‐inhibitory activity was evaluated with human colon carcinoma cell lines, HCT‐116 (Figure 2 c). […]

CC(C)[C@@H]1NC(=O)[C@]2(C)CSC(=N2)c2csc(n2)CNC(=O)C[C@@H](/C=C/CCS)OC1=O [largazole thiol]
GI50 ([1]; 48 h): 185 nM

CCCCCCCC(=O)SCC/C=C/[C@@H]1CC(=O)NCc2nc(cs2)C2=N[C@@](C)(CS2)C(=O)N[C@@H](C(C)C)C(=O)O1 [largazole]
GI50 ([1]; 48 h): 1.43 nM

C=C(CSCC/C=C/[C@@H]1CC(=O)NCc2nc(cs2)C2=N[C@@](C)(CS2)C(=O)N[C@@H](C(C)C)C(=O)O1)CSCC/C=C/[C@@H]1CC(=O)NCc2nc(cs2)C2=N[C@@](C)(CS2)C(=O)N[C@@H](C(C)C)C(=O)O1 [stapled largazole]
logPe (Avg. logPe) ([2]; donor Prisma HT buffer pH 7.4, acceptor sink buffer pH 7.4, DMSO <0.5%, unstirred): −5.29
Papp ([2]; donor Prisma HT buffer pH 7.4, acceptor sink buffer pH 7.4, DMSO <0.5%, unstirred, read-out: Pe, effective permeability (Avg. Pe)): 5.3 ×10⁻⁶ cm/s
Avg. %R, membrane retention ([2]; donor pH 7.4, by mass balance): 10%
GI50 ([1]; HCT-116 cells, 48 h treatment, CellTiter-Blue, read-out: GI50): 408 nM
Cell viability after photoactivation (HCT-116 cells): significantly lower cell viability
HDAC activity (fluorescence) after photoactivation (HDAC): significant decrease of fluorescence
Conversion in the decaging reaction [3]: Full conversion

Source: PMC6391964, “Radical‐Mediated Thiol‐Ene Strategy: Photoactivation of Thiol‐Containing Drugs in Cancer Cells” (Angewandte Chemie (International Ed. in English), 2018)
